Reference: patent publication US4806547A, “Isoquinoline derivatives, analgesic compounds thereof and method of treating pain” (Dr. Lo. Zambeletti SPA, priority 1986, dated 1989)
Counter-ions that a name gives are not always drawn. Like-named read-outs stand apart in the source and are kept apart here.

Assays:
[1] = target: T1, K (Kappa) opioid receptor (K sites) (Cavia porcellus, UniProt P41144); assay: Receptor binding to K sites (tritiated Ethylketocyclazocine); design: species or system guinea pig
T1 construct: fresh guinea pig brain homogenate; from tissue; host or cells: guinea pig whole brain without cerebellum, homogenate
Method: Radio receptor binding to μ and K sites is performed on fresh guinea pig brain homogenate prepared according to Kosterlitz. (1981).
(§1) Whole brain without cerebellum is homogenized in 50 mM, Tris-buffer (pH 7.4 at 0° C.) and centrifuged at 49,000×g×10 min.
(§2) The pellet is then resuspended in the same buffer, incubated at 37° C. for 45 min. and centrifuged again.
(§3) 1.9 ml of the final homogenate (1:100 in Tris-pH 7.4, 0° C.) is used for the binding assay.
Binding to K sites (Magnan J., 1982)
The binding of tritiated Ethylketocyclazocine to brain homogenate is measured in the presence of 100 nanomolar D--Ala--D--LeuEnkephalin (DADLE) and 100 nanomolar DAGO, added to saturate the δ and μ opioid receptors respectively.
Final homogenate with solutions of the cold ligand and of the labelled ligand is incubated for 40 min. at 25° C., filtered through Whatman GF/C glass filter discs and washed.
The radioactivity bound to the filters is counted by liquid scintillation spectrophotometry.
MR 2266.500 nM is utilized to determine the saturable binding.
For the calculation of the kinetic parameters of the binding of labelled and unlabelled ligands, the equilibrium dissociation constant (KD), the inhibition constant (Ki) and the maximum number of binding sites (B max) are determined from saturation curves and competition experiments (Hill 1910; Scatchard 1949; Cheng and Prusoff 1973); Gillan et al. 1980).
(§4) A concentration of radioligand near KD is used in the binding assays evaluating our compounds.

mice = assay: Mouse Tail-flick test (analgesic activity); assay type: in vivo, mouse (male Charles River); details: 30 min after dosing; for ED50: Mus musculus, sc, 0.5 h, s.c., mice doubling the initial reaction time
Method: Mouse Tail-flick test (Modified from the procedure published by D'Amour et al., J. Pharm. Exptl. Ther.72, 74/1941).
Male Charles River mice, average weight 26 g, are used. Selection is carried out before beginning of experiments: only mice whose reaction time is less than 8 sec are used. They are randomly distributed into groups of 10 and dosed with compounds under test, with positive and negative controls being included.
Compounds under test are administered subcutaneously in isotonic saline in a volume of 20 ml. Kg^-1. 30 min later mice are placed again under heat source (Socrel apparatus) and reaction time is recorded.
The analgesic activity of the test compound is expressed as the percent number of mice doubling the initial time within a group. [formula]

[2] = target: μ opioid receptor (μ sites) (Cavia porcellus, UniProt A0ACM8Q262); assay: Receptor binding to μ sites (3H-DAGO)
Method: Radio receptor binding to μ and K sites is performed on fresh guinea pig brain homogenate prepared according to Kosterlitz.
as §1, §2, §3
^3 H[D--Ala^2, MePhe^4, Gly--ol^5 ]
The filters are then dryed, solubilized in Filtercount and the radioactivity monitored. Non specific binding is determined in the presence of 10^-6 M Naloxone.
as §4

[3] = read-out: RECEPTOR BINDING Ki μ, guinea pig brain homogenate, 25° C., 40 min
[4] = guinea pig brain homogenate, 25° C., 40 min, read-out: RECEPTOR BINDING Ki μ
[5] = read-out: RECEPTOR BINDING Ki K, guinea pig brain homogenate, tritiated Ethylketocyclazocine with 100 nM DADLE and 100 nM DAGO, 25° C., 40 min

T1 sequence (P41144 whole entry): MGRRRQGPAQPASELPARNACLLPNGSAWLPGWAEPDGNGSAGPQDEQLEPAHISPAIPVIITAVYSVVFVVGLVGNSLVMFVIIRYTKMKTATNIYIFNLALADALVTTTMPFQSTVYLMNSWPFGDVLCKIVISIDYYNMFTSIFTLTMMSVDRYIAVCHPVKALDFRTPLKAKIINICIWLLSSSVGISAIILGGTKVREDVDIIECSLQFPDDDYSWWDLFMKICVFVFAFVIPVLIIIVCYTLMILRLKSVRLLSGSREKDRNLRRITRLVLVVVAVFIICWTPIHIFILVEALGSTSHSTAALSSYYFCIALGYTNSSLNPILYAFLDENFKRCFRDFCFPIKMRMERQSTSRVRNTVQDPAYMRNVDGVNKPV
Chain of μ opioid receptor (μ sites) (A0ACM8Q262 1-400): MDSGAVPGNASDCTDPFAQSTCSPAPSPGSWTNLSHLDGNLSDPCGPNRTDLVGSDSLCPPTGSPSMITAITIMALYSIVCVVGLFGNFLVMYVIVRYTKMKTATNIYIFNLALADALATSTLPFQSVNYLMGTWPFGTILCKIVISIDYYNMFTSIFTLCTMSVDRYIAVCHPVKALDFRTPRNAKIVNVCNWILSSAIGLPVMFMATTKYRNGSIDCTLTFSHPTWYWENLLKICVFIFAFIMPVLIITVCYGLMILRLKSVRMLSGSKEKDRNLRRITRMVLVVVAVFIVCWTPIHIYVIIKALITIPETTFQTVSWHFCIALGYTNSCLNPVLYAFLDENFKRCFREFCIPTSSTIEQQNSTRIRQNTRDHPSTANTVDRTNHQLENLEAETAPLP

Compound | ED50 (mice) [mg/kg] | Ki [2, 3] [nM] | Ki [2, 4] [nM] | Ki [1, 5] [nM] | further results
CN(C)CC1c2ccccc2CCN1C(=O)Cc1ccc(Cl)c(Cl)c1 (single isomer, unassigned) [Example 3, hemihydrate] | 0.032 | 286 | – | – | Ki [1]: 2.37 nM
O=C(Cc1ccc(Cl)c(Cl)c1)N1CCc2ccccc2C1CN1CCCC1 (single isomer, unassigned) [Example 9, (-)-1-[1-pyrrolidinylmethyl)-2-(3,4-dichlorophenylacetyl)-1,2,4-tetrahydroisoquinoline (-)-tartrate] | 0.009 | – | – | – | –
CN(C)CC1c2ccccc2CCN1C(=O)Cc1ccc(Cl)c(Cl)c1 (stereo not drawn) [Example 1, 1-dimethylaminomethyl-2-(3,4-dichlorophenyl)-acetyl-1,2,3,4-tetrahydroisoquinoline hydrochloride] | 0.041 | 415 | – | – | Ki ([1]; guinea pig brain homogenate, tritiated Ethylketocyclazocine with 100 nM DADLE and 100 nM DAGO, 25° C., 40 min, read-out: RECEPTOR BINDING Ki K): 1.59 nM
CN(C)CC1c2ccccc2CCN1C(=O)Cc1ccc(Br)cc1 (stereo not drawn) [Example 4, 2-(4-bromophenylacetyl)-1-dimethylaminomethyl-1,2,3,4-tetrahydroisoquinoline hydrochloride] | 0.25 | – | 597 | – | Ki [1]: 3.19 nM
CN(C)CC1c2ccccc2CCN1C(=O)Cc1ccc([N+](=O)[O-])cc1 (stereo not drawn) [Example 5, 1-dimethylaminomethyl-2-(nitrophenylacetyl)-1,2,3,4-tetrahydroisoquinoline hydrochloride hemihydrate] | 0.23 | – | 655 | 5.72 | –
CN(C)CC1c2ccccc2CCN1C(=O)Cc1ccccc1[N+](=O)[O-] (stereo not drawn) [Example 6, 1-dimethylaminomethyl-2-(2-nitrophenylacetyl)-1,2,3,4-tetrahydroisoquinoline hydrochloride hemihydrate] | – | – | > 10000 | 30.6 | –
O=C(Cc1ccc(Cl)c(Cl)c1)N1CCc2ccccc2C1CN1CCCC1 (stereo not drawn) [Example 7, 1-[1-pyrrolidinylmethyl)-2-(3,4-dichlorophenylacetyl)-1,2,3,4-tetrahydroisoquinoline hydrochloride] | 0.016 | – | – | – | –
O=C(Cc1ccc(Br)cc1)N1CCc2ccccc2C1CN1CCCC1 (stereo not drawn) [Example 10, 1-(1-pyrrolidinylmethyl)-2-(4-bromophenylacetyl)-1,2,3,4-tetrahydroisoquinoline hydrochloride] | 0.031 | 50 | – | – | Ki [1]: 0.57 nM
O=C(Cc1ccc([N+](=O)[O-])cc1)N1CCc2ccccc2C1CN1CCCC1 (stereo not drawn) [Example 11, 1-(1-pyrrolidinylmethyl)-2-(4-nitrophenylacetyl)-1,2,3,4-tetrahydroisoquinoline hydrochloride hemihydrate] | 0.016 | 62 | – | 0.64 | –
O=C(Cc1cccc([N+](=O)[O-])c1)N1CCc2ccccc2C1CN1CCCC1 (stereo not drawn) [Example 12, 1-(1-pyrrolidinylmethyl)-2-(3-nitrophenylacetyl)-1,2,3,4-tetrahydroisoquinoline hydrochloride hydrate] | 0.23 | – | – | – | –
O=C(Cc1ccccc1[N+](=O)[O-])N1CCc2ccccc2C1CN1CCCC1 (stereo not drawn) [Example 13, 1-(1-pyrrolidinylmethyl)-2-(2-nitrophenylacetyl)-1,2,3,4-tetrahydroisoquinoline hydrochloride hemihydrate] | – | – | 1850 | 7.94 | –
O=C(Cc1ccc(C(F)(F)F)cc1)N1CCc2ccccc2C1CN1CCCC1 (stereo not drawn) [Example 14, 1-(1-pyrrolidinylmethyl)-2-(4-trifluoromethylacetyl)-1,2,3,4-tetrahydroisoquinoline hydrochloride] | 0.33 | – | – | – | –
N#Cc1ccc(CC(=O)N2CCc3ccccc3C2CN2CCCC2)cc1 (stereo not drawn) [Example 15, 1-(1-pyrrolidinylmethyl)-2-(4-cyanophenylacetyl)-1,2,3,4-tetrahydroisoquinoline hydrochloride sesquihydrate] | – | – | – | – | MOUSE TAIL FLICK % protection (mice; at 1 mg/kg s.c.): 70%
